The values below come from PubChem BioAssay AID624129 (Sanford-Burnham Center for Chemical Genomics, 2012).

What all share (assay): CXCR6 receptor antagonists, dose response, cell-based, beta-arrestin, DiscoveRx, APJ panel, uHTS hits (AID 624129)
Experiment [1] concerns the target C-X-C chemokine receptor type 6 (Homo sapiens) (UniProt O00574). Particulars: CXCR6 beta-arrestin (DiscoveRx) antagonist cell assay; for inhibition: CXCR6, run 1, dose range 2, at 80 µM (top of the series).
Experiment [2] deals with Apelin receptor (Homo sapiens) (UniProt P35414). The following applies: CXCR6 beta-arrestin (DiscoveRx) antagonist cell assay, APJ.
The target in experiment [3] is Beta-galactosidase (Escherichia coli) (UniProt Q8VNN2). The following applies: CXCR6 beta-arrestin (DiscoveRx) antagonist cell assay, b-galactosidase.
Experiment [4] addresses C-C chemokine receptor type 6 (Homo sapiens) (UniProt P51684). The following applies: CXCR6 beta-arrestin (DiscoveRx) antagonist cell assay.
The mark [5] stands for this setting: CXCR6, dose range 1, mean IC50 across replicates.
Where [6] appears, read: dose range 1, mean IC50 across replicates.
The mark [7] stands for this setting: CCR6, dose range 1, mean IC50 across replicates.

What is called IC50 is the concentration that gives 50% inhibition. Broadly, the inhibition is the change of the read-out against control, counted positive when it falls.

Structures are written as SMILES. Activity calls are given as the source filed them. No rule for the calls is given here.

C-X-C chemokine receptor type 6 (Homo sapiens), sequence (O00574 whole entry, looked up): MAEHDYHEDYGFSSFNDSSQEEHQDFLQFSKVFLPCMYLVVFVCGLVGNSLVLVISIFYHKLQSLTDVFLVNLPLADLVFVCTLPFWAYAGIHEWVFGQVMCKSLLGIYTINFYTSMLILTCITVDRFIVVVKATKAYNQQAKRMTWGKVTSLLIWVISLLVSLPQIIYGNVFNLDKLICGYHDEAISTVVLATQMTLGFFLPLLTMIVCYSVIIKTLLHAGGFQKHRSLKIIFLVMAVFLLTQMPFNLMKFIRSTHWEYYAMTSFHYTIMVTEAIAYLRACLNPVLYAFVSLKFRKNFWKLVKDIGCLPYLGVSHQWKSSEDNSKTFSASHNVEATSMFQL
Beta-galactosidase (Escherichia coli), sequence (Q8VNN2 whole entry, looked up): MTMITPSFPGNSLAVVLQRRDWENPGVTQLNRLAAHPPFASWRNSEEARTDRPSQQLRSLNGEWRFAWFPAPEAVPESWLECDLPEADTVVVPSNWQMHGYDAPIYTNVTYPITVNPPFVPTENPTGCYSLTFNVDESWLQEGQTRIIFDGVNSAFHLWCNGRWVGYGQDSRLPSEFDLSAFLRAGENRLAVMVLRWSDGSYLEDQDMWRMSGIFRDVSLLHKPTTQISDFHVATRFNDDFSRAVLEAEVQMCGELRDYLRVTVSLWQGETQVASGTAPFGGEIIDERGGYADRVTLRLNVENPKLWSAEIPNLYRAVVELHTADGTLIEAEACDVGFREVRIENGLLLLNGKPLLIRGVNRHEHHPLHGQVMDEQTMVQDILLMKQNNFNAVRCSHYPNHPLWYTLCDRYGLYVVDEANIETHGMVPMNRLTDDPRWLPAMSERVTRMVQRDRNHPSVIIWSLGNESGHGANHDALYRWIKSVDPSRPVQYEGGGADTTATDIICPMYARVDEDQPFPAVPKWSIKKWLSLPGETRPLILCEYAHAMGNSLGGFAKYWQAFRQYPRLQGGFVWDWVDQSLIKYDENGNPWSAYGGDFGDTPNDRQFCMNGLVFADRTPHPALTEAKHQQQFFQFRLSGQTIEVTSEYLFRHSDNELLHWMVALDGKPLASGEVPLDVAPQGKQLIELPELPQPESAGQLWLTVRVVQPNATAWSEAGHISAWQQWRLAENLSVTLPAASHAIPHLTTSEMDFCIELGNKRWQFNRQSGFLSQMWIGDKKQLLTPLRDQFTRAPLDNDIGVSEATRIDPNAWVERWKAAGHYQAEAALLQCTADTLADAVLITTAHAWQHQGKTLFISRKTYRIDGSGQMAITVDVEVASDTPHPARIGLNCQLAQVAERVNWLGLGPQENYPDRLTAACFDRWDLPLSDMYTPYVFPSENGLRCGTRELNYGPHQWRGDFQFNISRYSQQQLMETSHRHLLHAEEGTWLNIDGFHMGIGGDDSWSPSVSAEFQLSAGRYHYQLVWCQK

Regarding `N#CC(C#N)=C1C=CC=CN1/C(=C\c1ccco1)C(=O)c1ccc(Cl)cc1`, the IC50 result in experiment [1] (CXCR6, dose range 1) is “inactive”. The IC50 is 28 µM in experiment [1] (setting [5]); 25 µM in experiment [1] (CXCR6, run 2, dose range 1); 30.1 µM in experiment [2] (dose range 1); 32.5 µM in experiment [2] (setting [6]); 33.6 µM in experiment [2] (run 2, dose range 1); 33.7 µM in experiment [2] (run 3, dose range 1). Besides, the IC50 was 15.1 µM in experiment [3] (dose range 1); 15.1 µM in experiment [3] (setting [6]); 20.9 µM in experiment [4] (CCR6, dose range 1); 18.7 µM in experiment [4] (setting [7]); 16.4 µM in experiment [4] (CCR6, run 2, dose range 1). Also, the inhibition in experiment [1] was 125%.
As to `O=[N+]([O-])c1cc2oc3c(c2c(C=NCc2ccccc2)c1O)CCCC3`, the IC50 result in experiment [1] (CXCR6, dose range 1) was “inactive”. Besides, the IC50 in experiment [1] (setting [5]) was 20.9 µM; in experiment [1] (CXCR6, run 1, dose range 2), 4.04 µM; in experiment [1] (CXCR6, run 2, dose range 1) it was greater than 80 µM; in experiment [1] (CXCR6, run 2, dose range 2), 6.46 µM; in experiment [2] (dose range 1) it was 25.5 µM; in experiment [2] (setting [6]), 25.5 µM. Also, the IC50 is greater than 80 µM in experiment [2] (run 2, dose range 1); greater than 80 µM in experiment [2] (run 3, dose range 1); > 80 µM (inactive) in experiment [3] (dose range 1); greater than 80 µM in experiment [3] (setting [6]); 27.3 µM in experiment [4] (CCR6, dose range 1); 39.8 µM in experiment [4] (setting [7]). This molecule also had a half-maximal inhibitory concentration (IC50) in experiment [4] (CCR6, run 2, dose range 1) of 52.2 µM.
In the case of `C/C(=N\NC(=O)Cn1c(-c2ccccn2)nc2ccccc21)c1ccccc1`, in experiment [1] (CXCR6, dose range 1), the IC50 result was “inactive”. Besides, the IC50 in experiment [1] (setting [5]) is 18.4 µM; in experiment [1] (CXCR6, run 1, dose range 2), 9.71 µM; in experiment [1] (CXCR6, run 2, dose range 1), 29.4 µM; in experiment [1] (CXCR6, run 2, dose range 2) it was 8.43 µM; in experiment [2] (dose range 1), 23.9 µM; in experiment [2] (setting [6]), 21.3 µM. In addition, the IC50 in experiment [2] (run 2, dose range 1) was 16.1 µM; in experiment [2] (run 3, dose range 1) it was 23.9 µM; in experiment [3] (dose range 1), 34 µM; in experiment [3] (setting [6]), 34 µM; in experiment [4] (CCR6, dose range 1) it was 13.7 µM; in experiment [4] (setting [7]) it was 16.2 µM. In experiment [4] (CCR6, run 2, dose range 1), this molecule showed a concentration for half-maximal inhibition (IC50) of 18.7 µM.
Consider `O=[N+]([O-])c1c(NCCCO)cc(Sc2ccc(Cl)cc2)c2nonc12`, for which the IC50 entry in experiment [1] (CXCR6, dose range 1) was “inactive”. For the same molecule, the 50% inhibitory concentration (IC50) was 11.3 µM in experiment [1] (setting [5]); 3.9 µM in experiment [1] (CXCR6, run 1, dose range 2); greater than 80 µM in experiment [1] (CXCR6, run 2, dose range 1); 3.24 µM in experiment [1] (CXCR6, run 2, dose range 2); > 80 µM (inactive) in experiment [2] (dose range 1); greater than 80 µM in experiment [2] (setting [6]). The IC50 in experiment [2] (run 2, dose range 1) was greater than 80 µM; in experiment [2] (run 3, dose range 1), greater than 80 µM; in experiment [3] (dose range 1), > 80 µM (inactive); in experiment [3] (setting [6]), greater than 80 µM; in experiment [4] (CCR6, dose range 1), 2.58 µM; in experiment [4] (setting [7]) it was 12.9 µM. Also, in experiment [4] (CCR6, run 2, dose range 1), the half-inhibitory concentration (IC50) was 23.2 µM.
As to `O=C(Nc1cccc(C(F)(F)F)c1)Oc1ccc(Cl)c2cccnc12`, the IC50 was 0.874 µM in experiment [1] (CXCR6, dose range 1); 0.702 µM in experiment [1] (setting [5]); 0.53 µM in experiment [1] (CXCR6, run 2, dose range 1); 0.347 µM in experiment [2] (dose range 1); 0.41 µM in experiment [2] (setting [6]); greater than 80 µM in experiment [2] (run 2, dose range 1). Moreover, the concentration for half-maximal inhibition (IC50) in experiment [2] (run 3, dose range 1) was 0.463 µM; in experiment [3] (dose range 1), > 80 µM (inactive); in experiment [3] (setting [6]), greater than 80 µM; in experiment [4] (CCR6, dose range 1) it was 0.491 µM; in experiment [4] (setting [7]), 0.54 µM; in experiment [4] (CCR6, run 2, dose range 1) it was 0.589 µM. For the same molecule, the inhibition in experiment [1] stood at 53.2%.
With `Cn1nc([N+](=O)[O-])nc1Sc1cccc2cccnc12`, the IC50 result in experiment [1] (CXCR6, dose range 1) was “inactive”. Besides, the IC50 in experiment [1] (setting [5]) is 12.5 µM; in experiment [1] (CXCR6, run 1, dose range 2) it was 11.3 µM; in experiment [1] (CXCR6, run 2, dose range 1), 14.2 µM; in experiment [1] (CXCR6, run 2, dose range 2) it was 9.55 µM; in experiment [2] (dose range 1), 11 µM; in experiment [2] (setting [6]) it was 11.9 µM. Also, the IC50 in experiment [2] (run 2, dose range 1) was 11.4 µM; in experiment [2] (run 3, dose range 1) it was 13.1 µM; in experiment [3] (dose range 1), > 80 µM (inactive); in experiment [3] (setting [6]) it was greater than 80 µM; in experiment [4] (CCR6, dose range 1), 12.1 µM; in experiment [4] (setting [7]) it was 13.7 µM. In addition, in experiment [4] (CCR6, run 2, dose range 1), the IC50 is 15.2 µM.
With `COC(CNC(=O)c1cc(C(=O)c2c(-c3c(Cl)cccc3Cl)noc2C)c[nH]1)OC`, the IC50 result in experiment [1] (CXCR6, dose range 1) was “inactive”. Moreover, the half-inhibitory concentration (IC50) in experiment [1] (setting [5]) is 15.7 µM; in experiment [1] (CXCR6, run 2, dose range 1), 18.6 µM; in experiment [2] (dose range 1), 5.2 µM; in experiment [2] (setting [6]), 9.29 µM; in experiment [2] (run 2, dose range 1) it was 10.7 µM; in experiment [2] (run 3, dose range 1), 12 µM. The IC50 in experiment [3] (dose range 1) was > 80 µM (inactive); in experiment [3] (setting [6]), greater than 80 µM; in experiment [4] (CCR6, dose range 1), 16.9 µM; in experiment [4] (setting [7]), 24.1 µM; in experiment [4] (CCR6, run 2, dose range 1) it was 31.4 µM. For the same molecule, the inhibition in experiment [1] is 80.7%.
